In this test the test system is CaCo-2 cells. Put plainly: Cytostatic Action Test on Various Cells (XTT method). The format is cell-based. On the procedure:
The cytostatic measurement of the various cancer cells were conducted according to the method of the U.S. National Cancer Institute (NCI). Adhesive cells such as CaCo-2 and HepG2 were adjusted in each of the specified culture mediums at 0.5×10^5 cells/ml concentration and pipetted into a 96 well-plate (Costar3695) in an amount of 100 μl/well. The cells were cultured under the conditions of at 37° C. in 5% CO2 atmosphere for 24 hours to allow the cell adhesion, and then the numbers of each of the cells were determined by the XTT method to be recorded as the cell number of day 0 (C0days). After that, only the medium solutions were exchanged in the control groups, and culture mediums each containing the test samples adjusted to each of the specified concentrations were exchanged In the test sample dispensing groups, then the cells were cultured under the conditions of at 37° C. in 5% CO2 atmosphere for 72 hours. The numbers of each of the cells were determined by the XTT method to be recorded as the cell number of day 3 (C3days). Further, only the medium solutions were pipetted into the control groups and the test sample administration groups were adjusted to 5×10^5 cells/ml concentrations in each of the specified culture mediums containing the test samples adjusted to each of the specified concentrations, then pipetted into a 96 well-plate (Costar3695) in an amount of 100 μl/well. The cells were cultured under the condition of at 37° C. in 5% CO2 atmosphere for 72 hours, and the number of each of the cells (T3days) were determined in the same manner.
Cell proliferation rate (%) with respect to control groups=[(T3days
-C0days)/(C3days -C0days)]×100 Formula: 5
In general terms: Tetrazolium dyes change colour on reduction, which living cells bring about.

Broadly, the IC50 is the concentration at which inhibition is half-maximal.

Consider `Cc1cc(-c2ccc(F)cc2)c(-c2ccc(S(C)(=O)=O)cc2)[nH]1` [Preparation Example 1, 4-(4-fluorophenyl)-2-methyl-5-(4-methylsulfonylphenyl)-1H-pyrrole], for which the “cytostatic action” value (CaCo-2 cells, colon cancer cells) was “demonstrated a cytostatic action with respect to CaCo-2 cells”. Moreover, the 50% inhibitory concentration (IC50) (Homo sapiens, CaCo-2, 72 hours, XTT method, read-out: Cytostatic rate (IC50)) was 780 nM.
